In patent publication US20070009444A1, “Method for preparing powder exhibiting low susceptibility to electrification” (priority 2003, published 2007):

Experiments:
Type in all cases: physicochemical
[1] = Observation of spray dried powder (transit performance, coloring, operability)
Experimental: Acetaminophen and PEG4000 were mixed at the following ratio: acetaminophen-PEG4000=2.8 g-701 mg (Mixed ratio 4:1, PEG adding ratio 0.25 (weight of PEG (mg) relative to 1 mg of pharmaceutical active compound)), acetaminophen-PEG4000=2.8 g-351 mg (Mixed ratio 8:1, PEG adding ratio 0.125), acetaminophen-PEG4000=2.8 g-176 mg (Mixed ratio 16:1, PEG adding ratio 0.06), and acetaminophen-PEG4000=14 g-437 mg (Mixed ratio 32:1, PEG adding ratio 0.03). The final concentration of acetaminophen was adjusted to 1.4% by weight by adding suitable amount of water and the solution was spray dried under the conditions mentioned below.
FIG. 1 is a photograph of the acetaminophen powder (PEG adding ratio 0.03) and FIG. 2 is a photograph of the acetaminophen powder(without adding PEG). • Spray drying condition • Spray dryer: Spray dryer SD-1000 (Tokyo Rikakikai Co., Ltd.) • Speed of pump: scale 30 (about 6 mL/min) • IN-let temperature: 170° C. • Out-let temperature: 95 to 100° C. • Drying air volume: 0.60 m^3/min • Spray drying pressure: 70 kPa
Compound (I-1) powder was manufactured by a similar manner to Example 2 except that PEG400 (111 mg) (PEG adding ratio 0.37) was used instead of PEG4000 and the final concentration of Compound (I-1) in the solution was adjusted to 19% by weight. […]

[2] = Measurement of bulk density (3 cc vessel, tapped three times)
Excerpt: As an index for charge suppression of the obtained powder, bulk. density of the powder may be examined rather than measuring surface potential of the powder. […] When the bulk density is not less than 0.25 g/cc, preferably 0.28 g/cc, suction by a machine and transfer from a filling machine to a filling vessel may be conducted favorably, and a certain operability must be secured. The bulk density is a value determined in the manner as described below. First, 3 cc of sample to be measured is put into a vessel, and then the vessel is lightly tapped several to 10 times, preferably about 3 times. When the bulk is reduced, powder is supplemented, and this operation is repeated. At the time when the bulk no longer changes, a sample weight per 1 cc is determined. The bulk density of lowly-charged powder determined in the method of the present invention is 1.5 times or more, preferably 1.6 times or more, and further preferably 1.8 times or more the “bulk density of highly-charged compound”, “bulk density of powder obtained by drying a liquid composition containing a highly-charged compound and an additive other than PEG” or “bulk density of powder obtained by drying a liquid composition containing a pharmaceutically active compound”.
The bulk density of the acetaminophen powder containing PEG4000 (PEG adding ratio 0.03) obtained in Example 1 and the Compound (I-1) powder containing PEG4000 obtained in Example 2 were measured.
The powder was added to a vessel to reach the scale of 3 cc in a dry box and tapped three times. When the bulk is reduced, powder is added to the vessel to reach the scale of 3 cc and the same operation was repeated.
When the bulk no longer changed at 3 cc, addition of the powder was stopped and the bulk density (g/cc) was measured at that time.
Bulk densities of the acetaminophen powder (without adding PEG) and the Compound (I-1) powder (without adding PEG) were measured by the same method as controls.

[3] = Measurement of charge amount (Espartoanalyzer, sample mixed with iron powder 1:9, 500 V); details: for Average of charge: average of two measurements
Excerpt: In the present specification, the term “lowly-charged powder” means powder in which negative charge of surface potential is reduced (powder unsusceptible to negative charge) and encompasses positively charged powder. Concretely, it means powder having an average electric charge, measured with a particle charge distribution measuring device (for example, particle charge distribution measuring device using Laser Doppler speed meter), of not less than −2 q/m (namely, electric charge is negative and its absolute value is not more than 2, or electric charge is zero or positive value), preferably of not less than −1 q/m. The average electric charge is preferably not more than +5, more preferably not more than +3, and most preferably not more than +1. Measurement of electric charge may be conducted according to a manual of the device, and a condition and a measuring device are not particularly limited. For instance, after mixing a compound to be measured and iron powder in a ratio of about 1:9, about 1 g of mixture is collected. […]
400 mg of the acetaminophen powder containing PEG4000 (Acetaminophen:PEG=32:1, PEG adding ratio 0.03) obtained in Example 1 and 3600 mg of iron powder (TEFV-200/300 (registered trademark, Powdertech) as a carrier were filled into a glass vessel, and the mixture was mixed by hands for ten seconds. About 1 g of thus-obtained sample (true density of the particles: 1.20 g/cm^3) were collected and the charge amount was measured using Espartoanalyzer (Hosokawa Micron company). […]
Charge amount of the acetaminophen powder (without adding PEG) was measured by the same method as described above as a control (numbers of particles: 500).
Charge amount of each sample was measured twice and the average of the results are shown below.
Charge amount of the following samples were measured by the same method as Experiment 1. • i) 300 mg of Compound (I-1) […]

[4] = Particle diameter by dry powder tester (SK Laser micron sizer LMS-30); details: no PEG, with D-mannitol and NaOH, spray dried
Experimental: The method of measuring “average particle size” used herein is not particularly limited, and measurement may be conducted in accordance with a manual of the particle size meter to be used. For example, about 20 to 30 mg of powder to be measured for its diameter is taken, and placed in the particle size meter for conducting measurement.
(§1) 300 mg of Compound (I-l) and 150 mg of D-mannitol were mixed with suitable amount of sodium hydroxide. The solutions having various concentration (pH 9.5 to 9.75) were prepared. Thus-obtained solutions were spray dried under the same conditions as Example 1. The dissolution time of the obtained powder was measured by the same method as the above-mentioned Experiment 3. The particle diameter was measured under the following conditions. • Measuring condition of dry powder tester • Dry powder tester: SK Laser micron sizer LMS-30 (SEISHIN ENTERPRISE Co., Ltd.) • Carrier fluid: compressed air […] • Sample: about 20 to 30 mg

[5] = Measurement of dissolution time (powder in 10 ml distilled water for injection, vial shaken)
Experimental: The dissolving time is determined by shaking a vessel containing 300 mg of sample to be measured and 10 mL of water. In the case of pharmaceuticals, the sample to be measured should contain 300 mg of pharmaceutically active compound, and may contain a pharmaceutical additive. The shaking manner and time are not particularly limited. Concretely, measurement may be conducted according to the method described in Test example 3 described later.
The Compound (I-1) powder containing PEG (about 300 mg) which was obtained in Example 2 or 3 was filled in a vial (the capacity to the shoulder is 20 ml). After 10 ml of distilled water for injection was added to the vial, the vial was shaken 20 times (arm length: about 20 centimeters, the amplitude: […] and shaking speed: 20 times/ten seconds), and the dissolution time was measured.
as §1

SMILES | Coloring of powder ([1]; spray dried solution containing only acetaminophen, without adding PEG (control)) | Coloring of powder ([1]; spray dried with PEG4000, PEG adding ratio 0.25, 0.125, 0.06, 0.03 (all samples)) | Bulk density ([2]; solution 1.4% by weight, PEG4000, PEG adding ratio 0.03, spray dried) [g/cc] | Bulk density ([2]; solution 1.4% by weight, without adding PEG, spray dried) [g/cc] | Average of charge ([3]; acetaminophen powder spray dried with PEG4000, PEG adding ratio 0.03) [q/m] | Average of charge ([3]; acetaminophen powder without adding PEG, ratio 0) [q/m] | Bulk density ([2]; solution 18% by weight, PEG4000, PEG adding ratio 0.37, spray dried) [g/cc] | Bulk density ([2]; solution 18% by weight, without adding PEG, spray dried) [g/cc] | Particle diameter ([4]; solution 5% by weight (pH 9.5)) [μm] | Particle diameter ([4]; solution 10% by weight) [μm] | Particle diameter ([4]; solution 19% by weight (pH 9.75)) [μm] | Electric charge ([3]; Experiment 2; i) non-additive, 3000 particles; ii) PEG4000 + D-mannitol, PEG adding ratio 0.4, 505 particles) [q/m] | Dissolution time ([5]; no PEG, with D-mannitol and NaOH, solution 5% by weight (pH 9.5), spray dried) [s] | Dissolution time ([5]; no PEG, with D-mannitol and NaOH, solution 10% by weight, spray dried) [s] | Dissolution time ([5]; no PEG, with D-mannitol and NaOH, solution 19% by weight (pH 9.75), spray dried) | Dissolution time ([5]; solution before drying 5% by weight, PEG4000, PEG adding ratio 0.37) [s] | Dissolution time ([5]; solution before drying 5% by weight, non-additive, PEG adding ratio 0) [s] | Dissolution time ([5]; solution before drying 19% by weight, PEG400, PEG adding ratio 0.37) [s]
CC(=O)Nc1ccc(O)cc1 [Acetaminophen, acetaminophen] | a little coloring | non-coloring | 0.659 | 0.398 | −1.43 | −12.86 | – | – | – | – | – | – | – | – | – | – | – | –
CC1(C)CC[C@]2(C(=O)[O-])CC[C@]3(COC(=O)/C=C/c4cc(O)ccc4NC(=O)/C=C/C(=O)[O-])C(=CC[C@@H]4[C@@]5(C)CCC(=O)C(C)(C)[C@@H]5CC[C@]43C)[C@@H]2C1.[Na+].[Na+] [Compound (I-1)] | – | – | – | – | – | – | 0.395 | 0.206 | 8.9 | 10.1 | 11.6 | −2.57 | 40 | 10 | under 20 second | 10 | 40 | 10
